Experiments:
Type in all cases: ADME, organism-based
[1] = Drug excretion in human subject slow inactivator assessed as total isonicotinoyl compound level in urine at 681 mg, iv infused at constant rate 5.4 min measured 339.3 mins after start of drug injection by colorimetry; conditions: in vivo, 5.655 h
[2] = Drug excretion in human slow inactivators urine assessed as acetylisoniazid level at 1 g, iv by colorimetry; conditions: in vivo
[3] = Drug excretion in human subject slow inactivator assessed as sum of isoniazid plus hydrazones, acetylisoniazid, isonicotinic acid and isonicotinuric acid level in urine at 681 mg, iv infused at constant rate 5.4 min measured 35.5 mins after start of drug injection by colorimetry; conditions: in vivo
[4] = Drug excretion in human subject rapid inactivator assessed as total isonicotinoyl compound level in urine at 670 mg, iv infused at constant rate 5.2min measured 516 mins after start of drug injection by colorimetry; conditions: in vivo
[5] = Drug excretion in human subject slow inactivator assessed as sum of isoniazid plus hydrazones, acetylisoniazid, isonicotinic acid and isonicotinuric acid level in urine at 681 mg, iv infused at constant rate 5.4 min measured 370.3 mins after start of drug injection by colorimetry; conditions: in vivo, 6.17167 h
[6] = Drug excretion in human subject rapid inactivator assessed as total isonicotinoyl compound level in urine at 670 mg, iv infused at constant rate 5.2min measured 195 mins after start of drug injection by colorimetry; conditions: in vivo, 3.25 h
[7] = Drug excretion in human subject slow inactivator assessed as total isonicotinoyl compound level in urine at 681 mg, iv infused at constant rate 5.4 min measured 554 mins after start of drug injection by colorimetry; conditions: in vivo
[8] = Drug excretion in human subject rapid inactivator assessed as total isonicotinoyl compound level in urine at 670 mg, iv infused at constant rate 5.2min measured 458 mins after start of drug injection by colorimetry; conditions: in vivo
[9] = Drug metabolism in human rapid inactivators assessed as excretion of alpha-ketoglutaric acid isonicotinoylhydrazone in urine at 1 g, iv by colorimetry; conditions: in vivo
[10] = Drug excretion in human subject rapid inactivator assessed as sum of isoniazid plus hydrazones, acetylisoniazid, isonicotinic acid and isonicotinuric acid level in urine at 670 mg, iv infused at constant rate 5.2min measured 195 mins after start of drug injection by colorimetry; conditions: in vivo, 3.25 h
[11] = Drug metabolism in human rapid inactivators assessed as excretion of 1,2-diacetylhydrazine in urine at 1 g, iv by colorimetry; conditions: in vivo
[12] = Drug metabolism in human slow inactivators assessed as excretion of 1,2-diacetylhydrazine in urine at 1 g, iv by colorimetry; conditions: in vivo
[13] = Drug excretion in human subject slow inactivator assessed as sum of isoniazid plus hydrazones, acetylisoniazid, isonicotinic acid and isonicotinuric acid level in urine at 681 mg, iv infused at constant rate 5.4 min measured 305 mins after start of drug injection by colorimetry; conditions: in vivo
[14] = Drug excretion in human subject slow inactivator assessed as total isonicotinoyl compound level in urine at 681 mg, iv infused at constant rate 5.4 min measured 243.5 mins after start of drug injection by colorimetry; conditions: in vivo
[15] = Drug excretion in human subject rapid inactivator assessed as sum of isoniazid plus hydrazones, acetylisoniazid, isonicotinic acid and isonicotinuric acid level in urine at 670 mg, iv infused at constant rate 5.2min measured 400 mins after start of drug injection by colorimetry; conditions: in vivo
[16] = Drug excretion in human subject slow inactivator assessed as sum of isoniazid plus hydrazones, acetylisoniazid, isonicotinic acid and isonicotinuric acid level in urine at 681 mg, iv infused at constant rate 5.4 min measured 59.1 mins after start of drug injection by colorimetry; conditions: in vivo, 0.985 h
[17] = Drug excretion in human subject slow inactivator assessed as sum of isoniazid plus hydrazones, acetylisoniazid, isonicotinic acid and isonicotinuric acid level in urine at 681 mg, iv infused at constant rate 5.4 min measured 116 mins after start of drug injection by colorimetry; conditions: in vivo
[18] = Drug excretion in human subject slow inactivator assessed as sum of isoniazid plus hydrazones, acetylisoniazid, isonicotinic acid and isonicotinuric acid level in urine at 681 mg, iv infused at constant rate 5.4 min measured 339.3 mins after start of drug injection by colorimetry; conditions: in vivo, 5.655 h
[19] = Drug excretion in human subject rapid inactivator assessed as sum of isoniazid plus hydrazones, acetylisoniazid, isonicotinic acid and isonicotinuric acid level in urine at 670 mg, iv infused at constant rate 5.2min measured 516 mins after start of drug injection by colorimetry; conditions: in vivo
[20] = Drug excretion in human subject slow inactivator assessed as sum of isoniazid plus hydrazones, acetylisoniazid, isonicotinic acid and isonicotinuric acid level in urine at 681 mg, iv infused at constant rate 5.4 min measured 677 mins after start of drug injection by colorimetry; conditions: in vivo
[21] = Drug metabolism in human rapid inactivators assessed as excretion of acetylisoniazid in urine at 1 g, iv by colorimetry; conditions: in vivo
[22] = Drug excretion in human subject rapid inactivator assessed as sum of isoniazid plus hydrazones, acetylisoniazid, isonicotinic acid and isonicotinuric acid level in urine at 670 mg, iv infused at constant rate 5.2min measured 458 mins after start of drug injection by colorimetry; conditions: in vivo
[23] = Drug excretion in human subject rapid inactivator assessed as sum of isoniazid plus hydrazones, acetylisoniazid, isonicotinic acid and isonicotinuric acid level in urine at 670 mg, iv infused at constant rate 5.2min measured 259 mins after start of drug injection by colorimetry; conditions: in vivo
[24] = Drug excretion in human subject rapid inactivator assessed as sum of isoniazid plus hydrazones, acetylisoniazid, isonicotinic acid and isonicotinuric acid level in urine at 670 mg, iv infused at constant rate 5.2min measured 335 mins after start of drug injection by colorimetry; conditions: in vivo
[25] = Drug excretion in human subject slow inactivator assessed as total isonicotinoyl compound level in urine at 681 mg, iv infused at constant rate 5.4 min measured 116 mins after start of drug injection by colorimetry; conditions: in vivo
[26] = Drug excretion in human subject rapid inactivator assessed as sum of isoniazid plus hydrazones, acetylisoniazid, isonicotinic acid and isonicotinuric acid level in urine at 670 mg, iv infused at constant rate 5.2min measured 94 mins after start of drug injection by colorimetry; conditions: in vivo
[27] = Drug excretion in human rapid inactivators urine assessed as total isonicotinoyl compounds at 1 g, iv by colorimetry; conditions: in vivo
[28] = Drug excretion in human subject slow inactivator assessed as total isonicotinoyl compound level in urine at 681 mg, iv infused at constant rate 5.4 min measured 59.1 mins after start of drug injection by colorimetry; conditions: in vivo, 0.985 h
[29] = Drug excretion in human slow inactivators urine at 1 g, iv by colorimetry; conditions: in vivo
[30] = Drug excretion in human subject slow inactivator assessed as sum of isoniazid plus hydrazones, acetylisoniazid, isonicotinic acid and isonicotinuric acid level in urine at 681 mg, iv infused at constant rate 5.4 min measured 554 mins after start of drug injection by colorimetry; conditions: in vivo
[31] = Drug excretion in human subject slow inactivator assessed as sum of isoniazid plus hydrazones, acetylisoniazid, isonicotinic acid and isonicotinuric acid level in urine at 681 mg, iv infused at constant rate 5.4 min measured 243.5 mins after start of drug injection by colorimetry; conditions: in vivo
[32] = Drug excretion in human subject slow inactivator assessed as sum of isoniazid plus hydrazones, acetylisoniazid, isonicotinic acid and isonicotinuric acid level in urine at 681 mg, iv infused at constant rate 5.4 min measured 430.2 mins after start of drug injection by colorimetry; conditions: in vivo, 7.17 h

SMILES: NNC(=O)c1ccncc1 [ISONIAZID]
- Drug excretion [1]: 32 mg
- Drug excretion [2]: 97%
- Drug excretion [3]: 44.45 mg
- Drug excretion [4]: 17 mg
- Drug excretion [5]: 26.76 mg
- Drug excretion [6]: 59.9 mg
- Drug excretion [7]: 13.1 mg
- Drug excretion [8]: 17.2 mg
- Drug metabolism [9]: 1.4 %molar
- Drug excretion [10]: 57.7 mg
- Drug metabolism [11]: 48.4 %molar
- Drug metabolism [12]: 32.3 %molar
- Drug excretion [13]: 27.92 mg
- Drug excretion [14]: 36.2 mg
- Drug excretion [15]: 17.9 mg
- Drug excretion [16]: 30.44 mg
- Drug excretion [17]: 32.27 mg
- Drug excretion [18]: 33.69 mg
- Drug excretion [19]: 16.8 mg
- Drug excretion [20]: 11.396 mg
- Drug metabolism [21]: 43.8 %molar
- Drug excretion [22]: 17.3 mg
- Drug excretion [23]: 40.5 mg
- Drug excretion [24]: 29 mg
- Drug excretion [25]: 32 mg
- Drug excretion [26]: 48.1 mg
- Drug excretion [27]: 98.8%
- Drug excretion [28]: 33.7 mg
- Drug excretion [29]: 12.7 %molar
- Drug excretion [30]: 13.38 mg
- Drug excretion [31]: 37.21 mg
- Drug excretion [32]: 21.24 mg

Reference: ChEMBL document CHEMBL3785036 (J Pharm Sci, 1974)
